Measurements taken from ChEMBL document CHEMBL1149662, “Design and synthesis of a library of tertiary amides: evaluation as mimetics of the melanocortins' active core” (Bioorg Med Chem, 2007).

How the values were obtained:
Melanocortin receptor 4 = Melanocortin receptor 4 (Homo sapiens, UniProt P32245); test: Displacement of [125I]NDP-MSH from human recombinant MC4 receptor expressed in Sf9 cells
Melanocortin receptor 3 = Melanocortin receptor 3 (Homo sapiens, UniProt P41968); test: Displacement of [125I]NDP-MSH from human recombinant MC3 receptor expressed in Sf9 cells
Sequence of Melanocortin receptor 3 (P41968 whole entry): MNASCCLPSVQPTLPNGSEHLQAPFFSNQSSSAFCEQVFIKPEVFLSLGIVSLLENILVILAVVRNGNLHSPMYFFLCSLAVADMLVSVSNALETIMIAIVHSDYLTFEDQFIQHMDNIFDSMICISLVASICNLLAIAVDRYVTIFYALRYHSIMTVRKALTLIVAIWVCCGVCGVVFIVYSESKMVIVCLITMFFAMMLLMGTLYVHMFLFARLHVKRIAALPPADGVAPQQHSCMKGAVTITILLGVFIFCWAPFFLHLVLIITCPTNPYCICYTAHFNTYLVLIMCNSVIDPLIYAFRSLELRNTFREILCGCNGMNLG

[1] = target: Melanocyte-stimulating hormone receptor (Mus musculus, UniProt Q01727); test: Displacement of [125I]NDP-MSH from MC1 receptor in mouse B16 cells; format: cell-based
Sequence of Melanocyte-stimulating hormone receptor (Q01727 whole entry): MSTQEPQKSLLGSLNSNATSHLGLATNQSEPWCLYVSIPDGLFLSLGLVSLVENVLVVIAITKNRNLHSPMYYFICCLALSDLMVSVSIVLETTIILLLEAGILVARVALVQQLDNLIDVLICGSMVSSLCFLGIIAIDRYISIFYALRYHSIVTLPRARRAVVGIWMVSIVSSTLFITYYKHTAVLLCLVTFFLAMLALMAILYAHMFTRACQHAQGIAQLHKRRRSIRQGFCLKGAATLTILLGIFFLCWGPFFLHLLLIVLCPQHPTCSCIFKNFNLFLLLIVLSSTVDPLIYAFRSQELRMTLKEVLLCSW

Melanocortin receptor 5 = Melanocortin receptor 5 (Homo sapiens, UniProt P33032); test: Displacement of [125I]NDP-MSH from human recombinant MC5 receptor expressed in Sf9 cells
Sequence of Melanocortin receptor 5 (P33032 whole entry): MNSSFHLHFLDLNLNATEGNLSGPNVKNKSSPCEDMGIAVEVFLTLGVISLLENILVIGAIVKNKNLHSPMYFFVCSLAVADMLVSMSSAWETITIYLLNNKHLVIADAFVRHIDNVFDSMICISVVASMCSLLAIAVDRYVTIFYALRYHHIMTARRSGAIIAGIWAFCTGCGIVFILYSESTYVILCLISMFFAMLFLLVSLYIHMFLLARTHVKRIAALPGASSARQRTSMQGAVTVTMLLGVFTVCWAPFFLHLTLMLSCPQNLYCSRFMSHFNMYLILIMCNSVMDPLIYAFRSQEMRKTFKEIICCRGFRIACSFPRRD

Sequence of Melanocortin receptor 4 (P32245 whole entry): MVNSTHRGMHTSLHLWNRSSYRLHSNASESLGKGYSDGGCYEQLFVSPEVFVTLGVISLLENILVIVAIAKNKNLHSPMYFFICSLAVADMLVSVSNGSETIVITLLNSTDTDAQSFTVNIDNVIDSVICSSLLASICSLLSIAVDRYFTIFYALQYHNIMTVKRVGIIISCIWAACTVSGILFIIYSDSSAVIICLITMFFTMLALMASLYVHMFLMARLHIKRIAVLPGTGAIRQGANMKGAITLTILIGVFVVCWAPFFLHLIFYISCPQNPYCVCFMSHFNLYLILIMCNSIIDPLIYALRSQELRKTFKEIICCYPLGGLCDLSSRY

`NCC1CCC(CN(Cc2ccccc2)C(=O)CCCc2c[nH]c3ccccc23)CC1` (centres undefined) gave a Ki (Melanocortin receptor 4) of 4.4 µM, a Ki (Melanocortin receptor 3) of 27 µM and a Ki [1] of 2.5 µM. For the same molecule, the Ki (Melanocortin receptor 5) was 18 µM.
`N[C@H]1CC[C@H](NC(=O)NC2CCCC(N(Cc3ccccc3)C(=O)CCCc3c[nH]c4ccccc34)C2)CC1` (some centres undefined) showed a Ki (Melanocortin receptor 4) of 7.3 µM, a Ki (Melanocortin receptor 3) of 59 µM and a Ki [1] of 2.7 µM. The Ki (Melanocortin receptor 5) was 37 µM.
`NC1CCCC(N(C/C(Cl)=C/c2ccccc2)C(=O)CCCc2c[nH]c3ccccc23)C1` (centres undefined) gave a Ki (Melanocortin receptor 4) of 2.1 µM, a Ki (Melanocortin receptor 3) of 29 µM and a Ki [1] of 2.8 µM. It also gave a Ki (Melanocortin receptor 5) of 10 µM.
`NC1CCC(CC2CCC(N(C/C(Cl)=C/c3ccccc3)C(=O)CCCc3c[nH]c4ccccc34)CC2)CC1` (stereo in doubt; form 3) showed a Ki (Melanocortin receptor 4) of 5.2 µM, a Ki (Melanocortin receptor 3) of 33 µM and a Ki [1] of 2.3 µM. For the same molecule, the Ki (Melanocortin receptor 5) was 5.4 µM.
`CC1CC(CC2CCC(N(C/C(Cl)=C/c3ccccc3)C(=O)CCCc3c[nH]c4ccccc34)C(C)C2)CCC1N` (stereo in doubt; form 2) showed a Ki (Melanocortin receptor 4) of 3.1 µM, a Ki (Melanocortin receptor 3) of 13 µM and a Ki [1] of 2.2 µM. It also gave a Ki (Melanocortin receptor 5) of 4.8 µM.
With `COC(=O)c1ccc(CN(C(=O)CCCc2c(Cc3ccc(O)cc3)[nH]c3ccccc23)C2CCC(CC3CCC(N)CC3)CC2)cc1` (centres undefined) the Ki (Melanocortin receptor 4) was 2.7 µM, the Ki (Melanocortin receptor 3) was 46 µM and the Ki [1] was 4.3 µM. It also gave a Ki (Melanocortin receptor 5) of 6.7 µM.
For `CCOc1cc(CN(C(=O)CCCc2c[nH]c3ccccc23)C2CCC(CC3CCC(N)CC3)CC2)ccc1OC` (centres undefined), the Ki (Melanocortin receptor 4) was 2.1 µM, the Ki (Melanocortin receptor 3) was 16 µM and the Ki [1] was 2.9 µM. For the same molecule, the Ki (Melanocortin receptor 5) was 9.5 µM.
Work on `NC1CCCC(N(Cc2ccccc2)C(=O)CCCc2c[nH]c3ccccc23)C1` (centres undefined) yielded a Ki (Melanocortin receptor 4) of 5.7 µM, a Ki (Melanocortin receptor 3) of 30 µM and a Ki [1] of 3.3 µM. It also gave a Ki (Melanocortin receptor 5) of 18 µM.
With `NCC1CCC(CN(C/C(Cl)=C/c2ccccc2)C(=O)CCCc2c[nH]c3ccccc23)CC1` (centres undefined) the Ki (Melanocortin receptor 4) was 2.5 µM, the Ki (Melanocortin receptor 3) was 33 µM and the Ki [1] was 1.6 µM. The Ki (Melanocortin receptor 5) was 11 µM.
For `N#Cc1ccc(CN(C(=O)CCCc2c[nH]c3ccccc23)C2CCC(CC3CCC(N)CC3)CC2)cc1` (stereo in doubt; form 1), the Ki (Melanocortin receptor 4) was 2 µM, the Ki (Melanocortin receptor 3) was 12 µM and the Ki [1] was 1.6 µM. For the same molecule, the Ki (Melanocortin receptor 5) was 6.5 µM.
For `NC1CCCC(NC(=O)N[C@H]2CC[C@H](N(Cc3ccccc3)C(=O)CCCc3c[nH]c4ccccc34)CC2)C1` (some centres undefined), the Ki (Melanocortin receptor 4) was 11 µM, the Ki (Melanocortin receptor 3) was 31 µM and the Ki [1] was 1.8 µM. It also gave a Ki (Melanocortin receptor 5) of 52 µM.
Molecule `NC1CCC(CC2CCC(N(C/C(Cl)=C/c3ccccc3)C(=O)COc3ccc4ccccc4c3)CC2)CC1` (stereo in doubt; 10b-36-14) has a Ki (Melanocortin receptor 4) of 3.7 µM, a Ki (Melanocortin receptor 3) of 23 µM and a Ki [1] of 1.5 µM. It also gave a Ki (Melanocortin receptor 5) of 5.5 µM.
With `CC(c1ccc2ccccc2c1)N(CCN)C(=O)Cc1c[nH]c2ccccc12` (centres undefined) the Ki (Melanocortin receptor 4) was 11 µM, the Ki (Melanocortin receptor 3) was 11 µM and the Ki [1] was 4.4 µM. The Ki (Melanocortin receptor 5) was 19 µM.
`N=C(N)NCCN(Cc1ccc2ccccc2c1)C(=O)Cc1c[nH]c2ccccc12` showed a Ki (Melanocortin receptor 4) of 179 µM, a Ki (Melanocortin receptor 3) of 57 µM and a Ki [1] of 19 µM. It also gave a Ki (Melanocortin receptor 5) of 15 µM.
`C/C(=C\c1ccccc1)CN(CCCN)C(=O)CCCc1cccs1` showed a Ki (Melanocortin receptor 4) of 14 µM, a Ki (Melanocortin receptor 3) of 63 µM and a Ki [1] of 6.8 µM. It also gave a Ki (Melanocortin receptor 5) of 91 µM.
For `NCc1ccc(CN(C/C=C/c2ccccc2)C(=O)CCCc2c[nH]c3ccccc23)cc1`, the Ki (Melanocortin receptor 4) was 7.3 µM, the Ki (Melanocortin receptor 3) was 44 µM and the Ki [1] was 2.6 µM. For the same molecule, the Ki (Melanocortin receptor 5) was 9.7 µM.
`NCCCCN(Cc1ccc2ccccc2c1)C(=O)c1c[nH]c2ccccc12` showed a Ki (Melanocortin receptor 4) of 6.4 µM, a Ki (Melanocortin receptor 3) of 19 µM and a Ki [1] of 1.7 µM. It also gave a Ki (Melanocortin receptor 5) of 18 µM.
With `NC(N)=NCCCCN(Cc1ccc2ccccc2c1)C(=O)CCc1c[nH]c2ccccc12` the Ki (Melanocortin receptor 4) was 116 µM, the Ki (Melanocortin receptor 3) was 50 µM and the Ki [1] was 12 µM. For the same molecule, the Ki (Melanocortin receptor 5) was 21 µM.
`NC1CCC(CC2CCC(N(Cc3ccccc3Br)C(=O)CCCc3c[nH]c4ccccc34)CC2)CC1` (centres undefined) gave a Ki (Melanocortin receptor 4) of 4.4 µM, a Ki (Melanocortin receptor 3) of 80 µM and a Ki [1] of 3.6 µM. It also gave a Ki (Melanocortin receptor 5) of 9.1 µM.
Molecule `NCCN(C(=O)Cc1c[nH]c2ccccc12)C1CCc2ccccc2C1` (centres undefined) has a Ki (Melanocortin receptor 4) of 42 µM, a Ki (Melanocortin receptor 3) of 16 µM and a Ki [1] of 4 µM. The Ki (Melanocortin receptor 5) was 29 µM.
For `CC1CC(CC2CCC(N(Cc3ccccc3)C(=O)CCCc3c[nH]c4ccccc34)C(C)C2)CCC1N` (stereo in doubt; form 2), the Ki (Melanocortin receptor 4) was 3.2 µM, the Ki (Melanocortin receptor 3) was 22 µM and the Ki [1] was 0.87 µM. For the same molecule, the Ki (Melanocortin receptor 5) was 4.8 µM.
`NCCCN(C/C(Cl)=C/c1ccccc1)C(=O)CCCc1c[nH]c2ccccc12` showed a Ki (Melanocortin receptor 4) of 7 µM, a Ki (Melanocortin receptor 3) of 18 µM and a Ki [1] of 6.1 µM. It also gave a Ki (Melanocortin receptor 5) of 31 µM.
`COc1cc(Cl)c(CN(C(=O)CCCc2c[nH]c3ccccc23)C2CCC(CC3CCC(N)CC3)CC2)cc1OC` (stereo in doubt; form 2) showed a Ki (Melanocortin receptor 4) of 1.5 µM, a Ki (Melanocortin receptor 3) of 25 µM and a Ki [1] of 1.9 µM. For the same molecule, the Ki (Melanocortin receptor 5) was 8.9 µM.
`COc1ccc(CN(C(=O)CCCc2c[nH]c3ccccc23)C2CCC(CC3CCC(N)CC3)CC2)cc1Br` (centres undefined) showed a Ki (Melanocortin receptor 4) of 4.8 µM, a Ki (Melanocortin receptor 3) of 9.3 µM and a Ki [1] of 2.9 µM. For the same molecule, the Ki (Melanocortin receptor 5) was 278 µM.
Work on `CC1CC(CC2CCC(N(Cc3ccccc3)C(=O)CCCc3c[nH]c4ccccc34)C(C)C2)CCC1N` (stereo in doubt; form 1) yielded a Ki (Melanocortin receptor 4) of 1.2 µM, a Ki (Melanocortin receptor 3) of 4.3 µM and a Ki [1] of 0.69 µM. For the same molecule, the Ki (Melanocortin receptor 5) was 1.7 µM.
In the case of `NCCCCCN(C(=O)CCCc1c[nH]c2ccccc12)C1C2CC3CC(C2)CC1C3` (centres undefined), the Ki (Melanocortin receptor 4) is reported as 14 µM, the Ki (Melanocortin receptor 3) is reported as 25 µM and the Ki [1] is reported as 6.1 µM. For the same molecule, the Ki (Melanocortin receptor 5) was 46 µM.
